Source: ChEMBL document CHEMBL6182861, “Structural modification of heptamethine indocyanine dyes with improved aqueous solubility and stability for photothermal therapy” (Eur J Med Chem, 2025)
Active and inactive are the calls of the source. No cut-off for these calls is given here.

Key:
[1] = Aqueous solubility of compound by absorbance based assay; format: physicochemical; conditions: buffer
4T1 [2] = test: Photothermal cytotoxicity against mouse 4T1 cells assessed as survival rate at 3.12 uM preincubated for 4 hrs followed by exposure to laser irradiation of 808 nm for 2 mins and subsequent incubation for 20 hrs by MTT assay relative to control; format: functional; conditions: 4T1, light or radiation study, 24.03 h, time 1442 min, read-out: Survival
Mus musculus = test: Photothermal effect in female BALB/c mouse bearing mouse 4T1 cells at approximately 50 degreeC at 2.5 mg/kg, iv pretreated for 4 hrs followed by exposure to laser irradiation of 808 nm for 5 mins; format: functional, organism-based; conditions: time 245.0 min
[3] = Drug excretion in female BALB/c mouse bearing mouse 4T1 cells at 2.5 mg/kg, iv measured up to 12 hrs by fluorescence imaging analysis; format: ADME, organism-based; conditions: in vivo
4T1 [4] = test: Antitumor activity against mouse 4T1 cells implanted in female BALB/c mouse assessed as decrease in tumor size at 2.5 mg/kg, iv pretreated for 4 hrs followed by exposure to laser irradiation of 808 nm for 5 mins on every 2 days treated for 15 days; format: functional, organism-based; conditions: time 15.0 day
[5] = Toxicity in female BALB/c mouse bearing mouse 4T1 cells assessed as damage in liver at 2.5 mg/kg, iv pretreated for 4 hrs followed by exposure to laser irradiation of 808 nm for 5 mins on every 2 days treated for 15 days by H and E staining based analysis; format: organism-based; conditions: in vivo, 360 h, time 15 day
[6] = Toxicity in female BALB/c mouse bearing mouse 4T1 cells assessed as damage in spleen at 2.5 mg/kg, iv pretreated for 4 hrs followed by exposure to laser irradiation of 808 nm for 5 mins on every 2 days treated for 15 days by H and E staining based analysis; format: organism-based; conditions: in vivo, 360 h, time 15 day
[7] = Toxicity in ICR mouse bearing mouse H22 cells assessed as damage in liver at 2.5 mg/kg, iv pretreated for 4 hrs followed by exposure to laser irradiation of 808 nm for 5 mins on every 2 days treated for 15 days by H and E staining based analysis; format: organism-based; conditions: in vivo, 360 h, time 15 day
[8] = Toxicity in ICR mouse bearing mouse H22 cells assessed as damage in lung at 2.5 mg/kg, iv pretreated for 4 hrs followed by exposure to laser irradiation of 808 nm for 5 mins on every 2 days treated for 15 days by H and E staining based analysis; format: organism-based; conditions: in vivo, 360 h, time 15 day
[9] = Drug accumulation in tumor of female BALB/c mouse bearing mouse 4T1 cells at 1.8 mg/kg, iv measured up to 12 hrs by fluorescence imaging analysis; format: ADME, organism-based, Neoplasm; conditions: in vivo
[10] = Biodistribution in liver of female BALB/c mouse bearing mouse 4T1 cells at 1.8 mg/kg, iv measured up to 12 hrs by fluorescence imaging analysis; format: ADME, organism-based; conditions: in vivo
[11] = Drug accumulation in tumor of female BALB/c mouse bearing mouse 4T1 cells assessed as increase in fluorescence intensity at 1.8 mg/kg, iv measured after 4 hrs by fluorescence imaging analysis; format: ADME, organism-based, Neoplasm; conditions: in vivo
4T1 [12] = test: Antitumor activity against mouse 4T1 cells implanted in female BALB/c mouse assessed as tumor growth inhibition at 1.8 mg/kg, iv pretreated for 4 hrs followed by exposure to laser irradiation of 808 nm for 5 mins on every 2 days treated for 15 days; format: functional, organism-based; conditions: time 15.0 day
[13] = Toxicity in female BALB/c mouse bearing mouse 4T1 cells assessed as damage in heart at 1.8 mg/kg, iv pretreated for 4 hrs followed by exposure to laser irradiation of 808 nm for 5 mins on every 2 days treated for 15 days by H and E staining based analysis; format: organism-based; conditions: in vivo, 360 h, time 15 day
[14] = Toxicity in female BALB/c mouse bearing mouse 4T1 cells assessed as damage in spleen at 1.8 mg/kg, iv pretreated for 4 hrs followed by exposure to laser irradiation of 808 nm for 5 mins on every 2 days treated for 15 days by H and E staining based analysis; format: organism-based; conditions: in vivo, 360 h, time 15 day
[15] = Toxicity in female BALB/c mouse bearing mouse 4T1 cells assessed as damage in kidney at 1.8 mg/kg, iv pretreated for 4 hrs followed by exposure to laser irradiation of 808 nm for 5 mins on every 2 days treated for 15 days by H and E staining based analysis; format: organism-based; conditions: in vivo, 360 h, time 15 day

COCCOCCOCCN1/C(=C/C=C/C(=C/C=C/C2=[N+](CCOCCOCCOC)c3ccccc3C2(C)C)C(=O)OC)C(C)(C)c2ccccc21.[I-]
solubility [1]: soluble
viability at 3.12 µM (4T1 [2]): 36%
Activity (Mus musculus): Active; Compound Exhibited Superior Effect Among Tested Compounds
Drug excretion [3]: Active
Activity (4T1 [4]): Active
Activity [5]: Non-toxic
Activity [6]: Non-toxic
Activity [7]: Non-toxic
Activity [8]: Non-toxic

COC(=O)C(=C\C=C\C1=[N+](C)c2ccccc2C1(C)C)/C=C/C=C1/N(C)c2ccccc2C1(C)C.[I-]
Drug uptake [9]: Active
Drug uptake [10]: Active
Drug uptake [11]: Active
inhibition (4T1 [12]): Active; Minimal Effect Was Observed
Activity [13]: Non-toxic
Activity [14]: Non-toxic
Activity [15]: Non-toxic
